US20160304957A1, “TREATMENT AND MODULATION OF GENE EXPRESSION AND SKIN AGING” (DSM NUTRITIONAL PRODUCTS LTD., priority 2006, published 2016)

Tested on: HaCaT human keratinocytes
Assay: Affymetrix GeneChip microarray, transcriptional response to β-carotene and/or UVA
Assay type: cell-based
Details: β-carotene 1.5 μM, unirradiated
Protocol: The cell culture experiments were carried out as described. Briefly, a subclone of passage 65 HaCaT keratinocytes, selected for differentiation capacity, was used at passages 16 to 23 after subcloning. 2×10^5 cells were seeded per 60 millimeter dish. Starting the following day, the cells were pretreated for 2 days with β-carotene at 1.5 μM, a typical concentration in human plasma after moderate dietary supplementation)
β-carotene-containing medium was prepared as follows. Fresh all-E-β-carotene (DSM Nutritional Products, Kaiseraugst, Switzerland) stock solution in THF (containing 0.025% BHT; Fluka Chemie A G, Switzerland) was diluted 1:2 with ethanol and added to cell culture medium to a final concentration of 1.5 μM β-carotene. The solvent concentration in the medium was 0.5% for all treatments. β-carotene-containing medium was prepared fresh for the daily medium changes.
On day 3 of the experiment, the cells were irradiated with a Hönle sun lamp Sol 500 (270 kJ/m^2; Dr. Hönle, Germany).
Five independent, factorially designed cell irradiation experiments were analyzed by microarray hybridization. For each experiment, one chip was hybridized per treatment condition. GeneChip® analysis was done as described in [132], which is incorporated by reference, as if recited in full herein. Gene regulation by β-carotene and/or UVA was calculated relative to placebo.
Changes in gene expression were included in further analysis only if the change factor was […], and if unpaired t-tests yielded p values≦0.05. Upregulations by a […] are labeled bold, downregulations by a change factor of […] are labeled bold italics. (Table 1) To identify the pathways affected by the treatments functional information on the genes was retrieved from public literature databases.

CC1=C(/C=C/C(C)=C/C=C/C(C)=C/C=C/C=C(C)/C=C/C=C(C)/C=C/C2=C(C)CCCC2(C)C)C(C)(C)CCC1 [β-carotene, All-E-β-carotene]
N-RAS (X02751) change factor: −1.2 | NCF2; p67-phox; neutrophil oxidase factor (M32011) change factor: −0.8 | NF-κB subunit (S78771) change factor: −0.1 | NF-κB subunit (X61498) change factor: −0.07 | NFκB; p50 (S76638) change factor: −0.46 | NOL1; p120 nucleolar antigen (X55504) change factor: 0.04 | NOTCH3 (U97669) change factor: −0.8 | NOV (X96584) change factor: −0.7 | NOXA (D90070) change factor: −0.26 | NRF1 (L24123) change factor: −0.27 | NRF2, subunit beta 1 (U13045) change factor: −1.5 | OSR1; oxidative-stress responsive 1 (AB017642) change factor: −0.18 | PAR-1; thrombin receptor (M62424) change factor: −0.5 | PAR-2; proteinase activated receptor-2 (U34038) change factor: −0.27 | PAR-2; proteinase activated receptor-2 (U34038, second entry) change factor: −0.03 | PAR-2; proteinase activated receptor-2 (U67058) change factor: 0.03 | PAR-4; protease-activated receptor 4 (AF055917) change factor: −0.49 | RAIDD; death adaptor molecule (U79115) change factor: −0.22 | RB1 (L49229) change factor: −0.8 | RB2/p130 (X74594) change factor: −0.6 | RETSDR1; retinal short-chain dehydrogenase/reductase (AF061741) change factor: 1.1 | RPA; replication protein A 14 kda subunit (rpa) (L07493) change factor: −0.04 | RXRα (U66306) change factor: −0.2 | RXRα (X52773) change factor: −0.2 | Requiem (AF001433) change factor: 0.5 | SMAD 1 (U59423) change factor: −0.27 | SMAD3 (U68019) change factor: 0.5 | SMAD3 (U68019, second entry) change factor: 0.18 | SMAD4 (U44378) change factor: −0.7 | SMAD5 (U59913) change factor: −0.9 | SMAD6 (AF035528) change factor: −0.47 | SMAD7 (AF010193) change factor: −0.19 | SMRT (U37146) change factor: −0.33 | STK15; BTAK (AF011468) change factor: −0.18 | TDAG51; PQ-rich protein; PHLDA1 (Z50194) change factor: 0.27 | TGFβ; transforming growth factor β (X02812) change factor: 0.9 | TIAR; nucleolysin tiar (M96954) change factor: −0.45 | TIEG, EGRα (AF050110) change factor: −0.8 | TLR3; toll-like receptor 3 (U88879) change factor: 0.6 | TOP2; topoisomerase II (J04088) change factor: −0.22 | TRADD; TNF receptor-1 associated protein (L41690) change factor: 0.23 | TRAIL; TNF-related apoptosis inducing ligand (U37518) change factor: 0.15 | TRIP14; ‘2-5’ oligoadenylate synthetase (AJ225089) change factor: −0.07 | TRIP (U77845) change factor: −0.06 | TSSC3 (AF035444) change factor: −0.44 | TSSC3/IPL (AF001294) change factor: −0.6 | VEGF (AF022375) change factor: −0.5 | VEGF (AF024710) change factor: 0.02 | VEGF (M63978) change factor: −0.48 | VEGFR2; VEGF receptor 2; KDR; FLK-1kdr/flk-1 (AF035121) change factor: 0.6 | WEE1 (X62048) change factor: −0.6 | WNT5A (I20861) change factor: −0.47 | WNT5A (I20861, second entry) change factor: −1.7 | XRCC4 (U40622) change factor: −0.05 | bFGF; basic fibroblast growth factor; FGF2 (M27968) change factor: 0.1 | bilirubin udp-glucuronosyltransferase isozyme 2 (M57951) change factor: −0.25 | bullous pemphigoid autoantigen bp180 (M91669) change factor: −0.45 | c-myc (V00568) change factor: 0.1 | c-myc (V00568, second entry) change factor: 0.1 | c-myc binding protein (mbp-1) (M55914) change factor: 0.5 | caspase 2, ICH-1S (U13022) change factor: −0.31 | caspase 7 (U67319) change factor: −0.09 | ceruloplasmin (ferroxidase) (M13699) change factor: 1 | collagen type IV, α-2 (COL4A2) (X05610) change factor: −0.13 | collagen type IV, α-5 (COL4A5) (M58526) change factor: −0.8 | collagen type IV, α-6 (COL4A6) (D21337) change factor: −0.44 | collagen type VII, α-1 (COL7A1) (L02870) change factor: −0.21 | connexin 31 (AF099730) change factor: 0.17 | connexin 45 (U03493) change factor: −0.06 | coproporphyrinogen oxidase (D16611) change factor: −0.21 | cyclin E2 (AF091433) change factor: −0.25 | cyclin E (M73812) change factor: −0.23 | desmocollin type 4 (D17427) change factor: −1.3 | ferritin heavy chain (L20941) change factor: 0.36 | frizzled-2 (I37882) change factor: −0.03 | frizzled-6 (AB012911) change factor: −0.5 | haemochromatosis protein (hla-h) (U60319) change factor: 0.15 | hsp40; heat shock protein 40 (U40992) change factor: −0.6 | integrin α6 (X53586) change factor: −1.1 | integrin α6b (S66213) change factor: −0.9 | integrin α6b (S66213, second entry) change factor: −1.3 | jagged2 (jag2) (AF029778) change factor: −0.02 | keratin 2e (KRT2E); Keratin 2A (AF019084) change factor: −0.46 | keratin 5 (M21389) change factor: 0.9 | keratin 15 (J00124) change factor: 1 | keratin 16 (M28439) change factor: −2 | keratin 17 (Z19574) change factor: 0.04 | mKI67a mrna (long type) for antigen of monoclonal antibody KI-67 (X65550) change factor: −0.3 | mKI67a mrna (long type) for antigen of monoclonal antibody KI-67 (X65550, second entry) change factor: −0.17 | ornithine decarboxylase (M33764) change factor: −0.2 | ornithine decarboxylase (X16277) change factor: −0.32 | p21; wild-type p53 activated fragment-1 (WAF1) (U03106) change factor: −0.5 | p33; ING1b (AB024401) change factor: −0.47 | p160ROCK (U43195) change factor: −0.28 | protoporphyrinogen oxidase (D38537) change factor: −0.32 | rTS α (X67098) change factor: 0.13 | serpinB1 (M93056) change factor: 0.7 | stimulator of Fe transport (AF020761) change factor: 0.03 | thioredoxin reductase (X91247) change factor: −0.08 | thymidylate synthase (X02308) change factor: −0.12 | transferrin receptor (X01060) change factor: −0.05 | uroporphyrinogen III synthase (J03824) change factor: −0.15 | α topoisomerase truncated-form (L47276) change factor: −0.43
